Legend:
HPK1 [1] = target: T1, HPK1 (Homo sapiens, UniProt Q92918); experiment: HPK1 kinase activity assay (ADP-Glo); settings: HPK1 Kinase activity IC50 (nM), 1 nM HPK1, 10 μM ATP, 0.1 μg/μL MBP
T1 sequence (Q92918 1-346 limits assumed): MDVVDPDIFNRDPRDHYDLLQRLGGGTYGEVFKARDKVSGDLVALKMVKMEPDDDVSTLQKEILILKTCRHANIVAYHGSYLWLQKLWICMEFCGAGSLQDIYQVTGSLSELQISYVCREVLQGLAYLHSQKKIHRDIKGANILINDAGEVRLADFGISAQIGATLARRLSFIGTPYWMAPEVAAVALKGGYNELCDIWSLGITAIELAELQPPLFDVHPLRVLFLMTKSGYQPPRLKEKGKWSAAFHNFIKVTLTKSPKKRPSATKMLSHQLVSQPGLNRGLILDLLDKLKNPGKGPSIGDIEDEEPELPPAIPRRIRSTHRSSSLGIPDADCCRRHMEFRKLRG
Method: Preparation of buffer: 1× reaction buffer (40 mM Tris-HCl, 20 mM MgCl2, 0.01% Brij35, 50 μM DTT, 0.1 mg/ml BSA) was prepared using sterile water, which was prepared and used on the day of the experiment.
Preparation of 1000× drug stock plate: a 1000× compound stock plate was prepared. […] The compound stock plate was sealed with a sealing film and stored in a −20° C. refrigerator for later use.
Compound preparation and dosing: the 1000× drug stock plate was taken and melted at room temperature in the dark. Then 5× drug intermediate plate was prepared using reaction buffer and mixed well. 2 μL was transferred from the 5× drug intermediate plate into a 384-well plate, and negative control well and positive control well (in which 2 μL reaction buffer containing 0.5% DMSO was added) were set. Each point was repeated twice.
Preparation and incubation of reaction mixture: HPK1 protein was diluted to a 2.5× working solution with reaction buffer. 4 μL 2.5×HPK1 protein was added to each well containing test compound and positive control well, and 4 μL of reaction buffer without HPK1 protein was added to the negative control well. The obtained mixture was centrifuged at 1000 rpm for 1 min and then incubated in a 20° C. incubator for 15 min. A 2.5× mixed working solution of MBP protein and ATP was prepared with reaction buffer at concentrations of 0.5 μg/μL and 50 PM, respectively. 4 μL of the mixed working solution of MBP and ATP was added to each well, centrifuged at 1000 rpm for 1 min, and then incubated in a 20° C. incubator for 90 min.
ADP-Glo detection and reading plate: 10 μl ADP-Glo was added to each well of the test plate. The resulting mixture was centrifuged at 1000 rpm for 1 min and incubated in a 20° C. incubator for 60 min. Then 10 μL of the final incubation solution was transferred from the test plate to a new 384-well plate. 10 μL of kinase detection reagent was added to each well, centrifuged at 400 g for 1 min, and incubated in a 20° C. incubator for 60 min. Chemiluminescent signals were read by a microplate reader.

HPK1 [2] = target: HPK1 (Homo sapiens, UniProt Q92918); experiment: SLP76 phosphorylation assay (intracellular HPK1 inhibitory activity, p-SLP76 Ser376 sandwich ELISA); settings: p-SLP76 IC50(nM), Jurkat, Clone E6-1 cells; 1 h compound pre-incubation, anti-CD3 beads stimulation 20 min; SLP76 phosphorylation at S376
Target sequence in this assay (Q92918 whole entry): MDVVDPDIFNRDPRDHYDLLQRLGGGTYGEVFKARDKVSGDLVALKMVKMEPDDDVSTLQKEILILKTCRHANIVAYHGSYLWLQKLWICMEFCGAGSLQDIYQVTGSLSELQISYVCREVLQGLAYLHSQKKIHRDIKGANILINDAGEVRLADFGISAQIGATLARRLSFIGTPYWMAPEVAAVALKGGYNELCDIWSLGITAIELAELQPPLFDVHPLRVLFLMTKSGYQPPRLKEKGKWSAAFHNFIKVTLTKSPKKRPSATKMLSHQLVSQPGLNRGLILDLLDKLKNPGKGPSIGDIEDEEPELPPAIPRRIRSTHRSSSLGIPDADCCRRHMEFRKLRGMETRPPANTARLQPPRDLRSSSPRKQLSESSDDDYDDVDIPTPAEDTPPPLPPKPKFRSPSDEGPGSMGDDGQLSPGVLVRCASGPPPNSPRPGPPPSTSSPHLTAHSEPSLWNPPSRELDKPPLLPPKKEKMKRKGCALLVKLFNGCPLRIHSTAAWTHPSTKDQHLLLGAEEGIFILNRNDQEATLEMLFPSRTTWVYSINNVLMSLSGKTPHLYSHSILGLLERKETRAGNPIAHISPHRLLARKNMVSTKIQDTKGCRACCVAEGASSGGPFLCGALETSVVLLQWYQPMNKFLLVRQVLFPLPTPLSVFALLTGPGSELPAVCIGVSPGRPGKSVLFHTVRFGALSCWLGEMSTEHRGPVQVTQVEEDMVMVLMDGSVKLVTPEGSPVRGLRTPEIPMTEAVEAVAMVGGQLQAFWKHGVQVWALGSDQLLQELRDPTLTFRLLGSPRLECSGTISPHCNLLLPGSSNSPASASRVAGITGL

IC50 (HPK1 [1]) | IC50 (HPK1 [2]) | Compound
1.54 nM | 358 nM | CC(=O)N1CCc2cc(-c3cnc4[nH]cc(C)c4c3)cc(C3COCCN3)c2C1 (stereo not shown) [Compound Z119]
0.5 nM | 185 nM | COCC(=O)N1CCc2cc(-c3cnc4[nH]cc(C)c4c3)cc([C@@H]3CCCN3)c2C1 [Compound Z121, (S)-1-(6-(3-methyl-1H-pyrrolo[2,3-b]pyridin-5-yl)-8-(pyrrolidin-2-yl)-3,4-dihydroisoquinolin-2(1H)-yl)methoxyethyl ketone]
0.71 nM | 179 nM | Cc1c[nH]c2ncc(-c3cc4c(c([C@@H]5CCCN5)c3)CN(C(=O)C3CC3)CC4)cc12 [Compound Z122, (S)-1-(6-(3-methyl-1H-pyrrolo[2,3-b]pyridin-5-yl)-8-(pyrrolidin-2-yl)-3,4-dihydroisoquinolin-2(1H)-yl)cyclopropyl methyl ketone]
1.35 nM | 343 nM | Cc1c[nH]c2ncc(-c3cc4c(c([C@@H]5CCCN5)c3)CN(C(=O)c3ccccc3)CC4)cc12 [Compound Z123]
0.33 nM | 260 nM | Cc1c[nH]c2ncc(-c3cc4c(c([C@@H]5CCCN5)c3)CN(C(=O)c3ccncc3)CC4)cc12 [Compound Z124, (S)-(6-(3-methyl-1H-pyrrolo[2,3-b]pyridin-5-yl)-8-(pyrrolidin-2-yl)-3,4-dihydroisoquinolin-2(1H)-yl) (pyridin-4-yl)methanone]
1.43 nM | 301 nM | Cc1c[nH]c2ncc(-c3cc4c(c([C@@H]5CCCN5)c3)CN(C(=O)C3CCCCC3)CC4)cc12 [Compound Z125]
0.58 nM | 204 nM | Cc1c[nH]c2ncc(-c3cc4c(c([C@@H]5CCCN5)c3)CN(C(=O)C3CCOCC3)CC4)cc12 [Compound Z127]
7.54 nM | 664 nM | Cc1c[nH]c2ncc(-c3cc4c(c([C@@H]5CCCN5)c3)CN(CC(F)(F)F)CC4)cc12 [Compound Z131, (S)-6-(3-methyl-1H-pyrrolo[2,3-b]pyridin-5-yl)-8-(pyrrolidin-2-yl)-2-(2,2,2-trifluoroethyl)-1,2,3,4-tetrahydroisoquinoline]
0.81 nM | 132 nM | CCN1Cc2c(cc(-c3cnc4[nH]cc(C)c4c3)cc2[C@@H]2CCCN2)CC1=O [Compound Z138, (S)-2-ethyl-6-(3-methyl-1H-pyrrolo[2,3-b]pyridin-5-yl)-8-(pyrrolidin-2-yl)-1,4-dihydroisoquinolin-3(2H)-one]
0.39 nM | 159 nM | CC(=O)N1CCc2c(cc(-c3cnc4[nH]cc(C)c4c3)cc2[C@@H]2CCCN2)C1 [Compound Z139, (S)-1-(7-(3-methyl-1H-pyrrolo[2,3-b]pyridin-5-yl)-5-(pyrrolidin-2-yl)-3,4-dihydroisoquinolin-2(1H)-yl)ethan-1-one]
0.32 nM | 117 nM | c1cncc(-c2c[nH]c3ncc(-c4cc5c(c([C@@H]6CCCN6)c4)COCC5)cc23)c1 [Compound Z199, (S)-3-(pyridin-3-yl)-5-(8-(pyrrolidin-2-yl)isochroman-6-yl)-1H-pyrrolo[2,3-b]pyridine]
0.62 nM | 227 nM | Cc1c[nH]c2ncc(-c3cc4c(c([C@@H]5CCCN5)c3)CN(C(=O)c3cccnc3)CC4)cc12 [Compound Z210, (S)-1-(6-(3-methyl-1H-pyrrolo[2,3-b]pyridin-5-yl)-8-(pyrrolidin-2-yl)-3,4-dihydroisoquinolin-2(1H)-yl)(pyridin-3-yl)methanone]

More lines, now with the values behind:

Compound | IC50 (HPK1 [1]) | IC50 (HPK1 [2])
CC(C)c1c[nH]c2ncc(-c3cc(C4CCCN4)c4cnccc4c3)cc12 (stereo not shown) [Compound Z95, 6-(3-isopropyl-1H-pyrrolo[2,3-b]pyridin-5-yl)-8-(pyrrolidin-2-yl)isoquinoline] | 3.11 nM | 1080 nM
FC(F)(F)c1c[nH]c2ncc(-c3cc(C4CCCN4)c4cnccc4c3)cc12 (stereo not shown) [Compound Z96, 6-(3-(trifluoromethyl)-1H-pyrrolo[2,3-b]pyridin-5-yl)-8-(pyrrolidin-2-yl)isoquinoline] | 4.13 nM | 1000 nM
Cc1c[nH]c2ncc(-c3cc4c(c(C5CCCN5)c3)COCC4)cc12 (stereo not shown) [Compound Z97, 3-methyl-5-(8-(pyrrolidin-2-yl)isochroman-6-yl)-1H-pyrrolo[2,3-b]pyridine] | 1.54 nM | 377 nM
CC(=O)N1CCc2cc(-c3cnc4[nH]cc(C)c4c3)cc(C3CCCN3)c2C1 (stereo not shown) [Compound Z98, 1-(6-(3-methyl-1H-pyrrolo[2,3-b]pyridin-5-yl)-8(pyrrolidin-2-yl)-3,4-dihydroisoquinolin-2(1H)-yl)ethanone] | 0.9 nM | 237 nM
N#CCc1c[nH]c2ncc(-c3cc4c(c(C5CCCN5)c3)COCC4)cc12 (stereo not shown) [Compound Z101, 2-(5-(8-(pyrrolidin-2-yl)isochroman-6-yl)-1H-pyrrolo[2,3-b]pyridin-3-yl)acetonitrile] | 0.49 nM | 163 nM
Cc1c[nH]c2ncc(-c3cc4c(c(CN(C)C)c3)COCC4)cc12 [Compound Z103, N,N-dimethyl-1-(6-(3-methyl-1H-pyrrolo[2,3-b]pyridin-5-yl)isochroman-8-yl)methanamine] | 2.65 nM | 545 nM
CC(C#N)c1c[nH]c2ncc(-c3cc4c(c([C@@H]5CCCN5)c3)COCC4)cc12 (stereo partly drawn) [Compound Z104, 2-(5-(8-((S)-pyrrolidin-2-yl)isochroman-6-yl)-1H-pyrrolo[2,3-b]pyridin-3-yl)propanenitrile] | 0.29 nM | 77 nM
Cc1c[nH]c2ncc(-c3cc4c(c([C@@H]5CCCN5)c3)COCC4)nc12 [Compound Z106, (S)-7-methyl-2-(8-(pyrrolidin-2-yl)isochroman-6-yl)-5H-pyrrolo[2,3-b]pyrazine] | 0.53 nM | 133 nM
CN(C)Cc1cc(-c2cnc3[nH]cc(C(=O)NCC4(CO)CCC4)c3c2)cc2c1COCC2 [Compound Z107, 5-(8-((dimethylamino)methyl)isochroman-6-yl)-N-((1-(hydroxymethyl)cyclobutyl)methyl)-1H-pyrrolo[2,3-b]pyridine-3-carboxamide] | 5.79 nM | 525 nM
Cc1c[nH]c2ncc(-c3cc4c(c(C(C)N(C)C)c3)COCC4)cc12 (stereo not shown) [Compound Z108-1, N,N-dimethyl-1-(6-(3-methyl-1H-pyrrolo[2,3-b]pyridin-5-yl)isochroman-8-yl)ethan-1-amine] | 4.12 nM | 571 nM
Cc1c[nH]c2ncc(-c3cc4c(c(CN5CCCC5)c3)COCC4)cc12 [Compound Z109, 3-methyl-5-(8-(pyrrolidin-1-ylmethyl)isochroman-6-yl)-1H-pyrrolo[2,3-b]pyridine] | 9.78 nM | 1060 nM
CCN(CC)Cc1cc(-c2cnc3[nH]cc(C)c3c2)cc2c1COCC2 [Compound Z110, N-ethyl-N-((6-(3-methyl-1H-pyrrolo[2,3-b]pyridin-5-yl)isochroman-8-yl)methyl)ethanamine] | 26.9 nM | 2840 nM
Cc1c[nH]c2ncc(-c3cc4c(c(CNC(C)C)c3)COCC4)cc12 [Compound Z111, N-((6-(3-methyl-1H-pyrrolo[2,3-b]pyridin-5-yl)isochroman-8-yl)methyl)propan-2-amine] | 5.81 nM | 815 nM
Cc1c[nH]c2ncc(-c3cc4c(c(CNCC5CC5)c3)COCC4)cc12 [Compound Z112, 1-cyclopropyl-N-((6-(3-methyl-11H-pyrrolo[2,3-b]pyridin-5-yl)isochroman-8-yl)methyl)methanamine] | 3.55 nM | 305 nM
Cc1c[nH]c2ncc(-c3cc4c(c(CN5CC6CCC(C5)N6C)c3)COCC4)cc12 [Compound Z113, 3-methyl-5-(8-((8-methyl-3,8-diazabicyclo[3.2.1]octan-3-yl)methyl)isochroman-6-yl)-1H-pyrrolo[2,3-b]pyridine] | 62.2 nM | 10000 nM
Cc1c[nH]c2ncc(-c3cc([C@@H]4CCCN4)c4ccccc4n3)cc12 [Compound Z136, (S)-2-(3-methyl-1H-pyrrolo[2,3-b]pyridin-5-yl)-4-(pyrrolidin-2-yl)quinoline] | 31.2 nM | 7910 nM
N#CC1(c2c[nH]c3ncc(-c4cc5c(c([C@@H]6CCCN6)c4)COCC5)cc23)CC1 [Compound Z137, (S)-1-(5-(8-(pyrrolidin-2-yl)isochroman-6-yl)-1H-pyrrolo[2,3-b]pyridin-3-yl)cyclopropane-1-carbonitrile] | 0.37 nM | 159 nM
Cc1c[nH]c2ncc(-c3cc4c(c([C@@H]5CCCN5)c3)COC4)cc12 [Compound Z151-1, (S)-3-methyl-5-(7-(pyrrolidin-2-yl)-1,3-dihydroisobenzofuran-5-yl)-1H-pyrrolo[2,3-b]pyridine] | 2.52 nM | 739 nM
Cc1c[nH]c2ncc(-c3cc4c(c(CN(C)C)c3)C(=O)N(C)CC4)cc12 [Compound Z186, 8-((dimethylamino)methyl)-2-methyl-6-(3-methyl-1H-pyrrolo[2,3-b]pyridin-5-yl)-3,4-dihydroisoquinolin-1(2H)-one] | 34.2 nM | 3760 nM
N#Cc1c[nH]c2ncc(-c3cc4c(c([C@@H]5CCCN5)c3)COCC4)cc12 [Compound Z190, (S)-5-(8-(pyrrolidin-2-yl)isochroman-6-yl)-1H-pyrrolo[2,3-b]pyridine-3-carbonitrile] | 1.89 nM | 494 nM
